Data on 14 molecules can be found in patent US12391682B2, “Isoquinoline derivatives and their use for the treatment of parasitic infections” (Elanco Animal Health GmbH, priority 2019, dated 2025).

One assay concerns the target D. immitis Slo-1 (Dirofilaria immitis, UniProt I0DFK5). The assay can be described thus: In Vitro Assay 2: D. immitis Slo-1, membrane potential measurement in stable recombinant CHO cell line. In kind it is cell-based.
In assay [1] the test system is Adult Nippostrongylus brasiliensis. As to the kind of experiment: In Vitro Assay 3: Nippostrongylus brasiliensis (NIPOBR), acetylcholine esterase readout. To be noted: at 10 μg/ml (10 ppm), adult worms, read-out: activity (reduction of AChE compared to negative control). The method, then: In Vitro Assay 3: Nippostrongylus brasiliensis (NIPOBR)
Adult Nippostrongylus brasiliensis were washed with saline buffer containing 100 U/ml penicillin, 0.1 mg/ml streptomycin and 2.5 μg/ml amphotericin B. Test compounds were dissolved in DMSO and worms were incubated in medium in a final concentration of 10 μg/ml (10 ppm). An aliquot of the medium was used to determine the acetylcholine esterase activity in comparison to a negative control. The principle of measuring acetylcholine esterase as readout for anthelmintic activity was described in Rapson et al (1986) and Rapson et al (1987).

In assay [2] the test system is Dirofilaria immitis microfilariae. As to the kind of experiment: In Vitro Assay 4: Dirofilaria immitis microfilariae (DIROIM L1), motility. To be noted: 72 h, read-out: EC50 (reduction of motility in comparison to the negative control).
In another assay the test system is Dirofilaria immitis. As to the kind of experiment: In Vitro Assay 5: Dirofilaria immitis (DIROIM L4), motility. The settings on record: 72 h, read-out: EC50 (reduction of motility in comparison to the negative control).
The target of another assay is C. elegans Slo-1a (Caenorhabditis elegans, UniProt Q95V25).
Sequence of C. elegans Slo-1a (Q95V25 whole entry): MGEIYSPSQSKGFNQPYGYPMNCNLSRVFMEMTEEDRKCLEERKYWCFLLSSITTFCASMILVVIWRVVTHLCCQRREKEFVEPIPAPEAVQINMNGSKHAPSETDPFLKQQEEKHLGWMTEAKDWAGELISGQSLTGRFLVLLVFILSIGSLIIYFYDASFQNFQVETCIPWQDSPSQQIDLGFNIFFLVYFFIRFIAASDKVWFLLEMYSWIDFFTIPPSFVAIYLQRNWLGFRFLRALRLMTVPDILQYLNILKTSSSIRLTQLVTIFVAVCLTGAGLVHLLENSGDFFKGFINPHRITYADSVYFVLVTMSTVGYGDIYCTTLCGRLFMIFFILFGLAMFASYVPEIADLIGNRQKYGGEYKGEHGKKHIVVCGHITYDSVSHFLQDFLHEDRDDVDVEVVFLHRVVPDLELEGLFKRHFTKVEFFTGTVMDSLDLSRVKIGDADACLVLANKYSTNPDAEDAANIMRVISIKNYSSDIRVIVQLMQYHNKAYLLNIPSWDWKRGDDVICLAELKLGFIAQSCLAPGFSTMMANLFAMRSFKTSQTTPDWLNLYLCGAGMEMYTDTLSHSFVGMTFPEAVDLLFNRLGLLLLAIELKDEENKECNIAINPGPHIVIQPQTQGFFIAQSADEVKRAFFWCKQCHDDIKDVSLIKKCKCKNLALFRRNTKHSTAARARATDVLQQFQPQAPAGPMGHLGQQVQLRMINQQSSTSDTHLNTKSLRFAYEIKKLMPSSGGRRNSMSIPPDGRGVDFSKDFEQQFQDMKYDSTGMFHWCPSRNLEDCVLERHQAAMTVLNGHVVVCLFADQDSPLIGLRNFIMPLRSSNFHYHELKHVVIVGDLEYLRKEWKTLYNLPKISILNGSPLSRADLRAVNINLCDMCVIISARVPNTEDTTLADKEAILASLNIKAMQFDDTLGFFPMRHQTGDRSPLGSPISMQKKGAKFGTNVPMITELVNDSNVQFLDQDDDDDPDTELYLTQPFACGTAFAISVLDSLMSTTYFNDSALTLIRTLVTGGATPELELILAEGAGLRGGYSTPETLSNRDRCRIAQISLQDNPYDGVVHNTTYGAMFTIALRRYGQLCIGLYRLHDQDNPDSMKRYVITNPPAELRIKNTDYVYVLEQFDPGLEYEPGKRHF

Sequence of D. immitis Slo-1 (I0DFK5 1-1119): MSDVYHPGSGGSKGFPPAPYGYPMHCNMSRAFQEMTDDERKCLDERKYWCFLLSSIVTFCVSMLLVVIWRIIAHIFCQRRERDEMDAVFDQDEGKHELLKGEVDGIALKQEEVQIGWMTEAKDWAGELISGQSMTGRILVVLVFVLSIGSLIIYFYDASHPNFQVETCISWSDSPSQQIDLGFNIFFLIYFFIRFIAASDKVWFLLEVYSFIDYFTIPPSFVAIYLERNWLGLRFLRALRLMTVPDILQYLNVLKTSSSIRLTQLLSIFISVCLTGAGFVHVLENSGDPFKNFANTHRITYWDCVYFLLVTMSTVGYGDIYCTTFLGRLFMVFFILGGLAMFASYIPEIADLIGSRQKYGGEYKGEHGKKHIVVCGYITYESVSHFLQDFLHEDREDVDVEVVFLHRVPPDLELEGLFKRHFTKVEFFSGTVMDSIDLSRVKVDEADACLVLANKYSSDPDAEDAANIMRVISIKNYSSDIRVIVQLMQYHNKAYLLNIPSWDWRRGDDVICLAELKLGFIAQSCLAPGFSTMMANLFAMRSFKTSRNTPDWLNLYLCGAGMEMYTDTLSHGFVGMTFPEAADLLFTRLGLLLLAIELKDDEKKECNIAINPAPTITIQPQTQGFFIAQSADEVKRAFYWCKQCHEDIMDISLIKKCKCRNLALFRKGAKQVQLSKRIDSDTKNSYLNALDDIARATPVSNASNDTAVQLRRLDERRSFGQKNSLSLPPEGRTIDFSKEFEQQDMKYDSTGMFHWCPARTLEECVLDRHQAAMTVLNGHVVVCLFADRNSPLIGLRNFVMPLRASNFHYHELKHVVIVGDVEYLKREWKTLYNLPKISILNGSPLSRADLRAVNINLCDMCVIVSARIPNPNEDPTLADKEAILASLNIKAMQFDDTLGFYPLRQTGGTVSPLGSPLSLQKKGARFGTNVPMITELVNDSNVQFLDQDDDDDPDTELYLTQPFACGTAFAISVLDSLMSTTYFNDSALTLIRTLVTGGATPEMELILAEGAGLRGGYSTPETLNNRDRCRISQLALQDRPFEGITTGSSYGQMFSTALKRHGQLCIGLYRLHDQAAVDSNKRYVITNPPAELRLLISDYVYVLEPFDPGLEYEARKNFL
Experimental for C. elegans Slo-1a: In Vitro Assay 1: C. elegans Slo-1a—Action at a Recombinant C. elegans Cell Line
Generation of a Stable Caenorhabditis elegans CHO Cell Line
A CHO cell line was obtained from ATCC, code ATCC CRL-9096. For transfection with plasmid DNA to express C. elegans Slo-1a (accession number AAL28102)CHO cells were passaged to 40% confluence before adding the transfection solution to the cell culture. The transfection solution included 300 μL OptiMEM (Life Technologies, Nr.: 31985), 2 μL (=6 μg) of plasmid DNA containing the C. elegans Slo 1a gene and 9 μL FugeneHD (Promega, Nr.: E2311), and was added to the cells prior to incubation for 48 hours at 37° C., 5% CO2. The transfection medium was exchanged for the selection medium which contains additional G418 (2 mg/ml, Invitrogen, Nr.: 10131) and the cells were seeded into 384 well plates (300 cells/well). […]
After starting the measurement of fluorescence using a FLIPR Tetra (Molecular Devices, Exc. 510-545 nm, Emm. 565-625 n), test compounds were added followed by the addition of KCl tyrode (final assay concentration: 70 mM KCl, 2 mM CaCl2, 1 mM MgCl2, 0.8 mM NaH2PO4, 5 mM Glucose, 28 mM Hepes, pH 7.4, including the voltage sensitive dye). […]
The data were evaluated by using the ActivityBase XLfit software (IDBS) for curve fitting and calculation of the half-maximal effective concentration (EC50) and are reported as negative decadic logarithm (pE50).

A word on the EC50: it is the concentration that produces a half-maximal response. On to `O=C(N[C@H]1CCOc2ccccc21)c1ncc2c(-c3cc(F)cc(F)c3F)cccc2c1N1CCOCC1` [Example I-1, N-[(4S)-3,4-dihydro-2H-chromen-4-yl]-4-(morpholin-4-yl)-8-(2,3,5-trifluorophenyl)isoquinoline-3-carboxamide], for which the EC50 on D. immitis Slo-1 was 3.16 to 31.6 nM; in assay [2], less than 0.1 µg/mL; with Dirofilaria immitis, less than 0.1 µg/mL. Also, the inhibition at 10 µg/mL in assay [1] is more than 80%.

Consider `Cc1c(C(=O)N[C@H]2CCOc3ccccc32)ncc2c(-c3cc(F)cc(F)c3F)cccc12` [Example I-2, N-[(4S)-3,4-dihydro-2H-chromen-4-yl]-4-methyl-8-(2,3,5-trifluorophenyl)isoquinoline-3-carboxamide], for which the concentration for a half-maximal effect (EC50) on D. immitis Slo-1 was 316 to 5010 nM; in assay [2], less than 0.1 µg/mL; in the assay on Dirofilaria immitis, less than 0.1 µg/mL. Also, in assay [1], the inhibition at 10 µg/mL is more than 80%.

Regarding `CC(C)c1c(C(=O)N[C@H]2CCOc3ccccc32)ncc2c(-c3cc(F)cc(F)c3F)cccc12` [Example I-3, N-[(4S)-3,4-dihydro-2H-chromen-4-yl]-4-isopropyl-8-(2,3,5-trifluorophenyl)isoquinoline-3-carboxamide], the concentration for a half-maximal effect (EC50) was 31.6 to 316 nM at D. immitis Slo-1, less than 0.1 µg/mL in assay [2] and less than 0.1 µg/mL in the assay on Dirofilaria immitis. Moreover, in assay [1], the inhibition at 10 µg/mL is more than 80%.

On to `CC(C)c1c(C(=O)N[C@H]2CCOc3ccccc32)ncc2c(-c3cc(Cl)cc(Cl)c3)cccc12` [Example I-4], for which the concentration for a half-maximal effect (EC50) at D. immitis Slo-1 was 31.6 to 316 nM; in assay [2] it was less than 0.1 µg/mL; in the assay with Dirofilaria immitis, less than 0.1 µg/mL. Moreover, the inhibition at 10 µg/mL in assay [1] was more than 80%.

Turning to `Cc1c(C(=O)N[C@H]2CCc3ccccc32)ncc2c(-c3cc(F)cc(F)c3F)cccc12` [Example I-7], the EC50 at D. immitis Slo-1 was 316 to 5010 nM; in assay [2], less than 0.1 µg/mL; in the assay with Dirofilaria immitis, less than 1 µg/mL. In assay [1], the inhibition at 10 µg/mL is more than 80%.

Consider `O=C(N[C@H]1CCCc2ccccc21)c1ncc2c(-c3cc(Cl)cc(Cl)c3)cccc2c1N1CCOCC1` [Example I-8], for which the EC50 on D. immitis Slo-1 was 316 to 5010 nM; on C. elegans Slo-1a it was 3.16 to 31.6 nM; in assay [2] it was less than 0.1 µg/mL; with Dirofilaria immitis it was less than 0.1 µg/mL. In assay [1], the inhibition at 10 µg/mL is more than 80%.

Take `O=C(N[C@H]1CCCc2ccccc21)c1ncc2c(-c3cc(F)cc(F)c3F)cccc2c1N1CCOCC1` [Example I-9]: the EC50 at D. immitis Slo-1 is 31.6 to 316 nM; in assay [2], less than 0.1 µg/mL; with Dirofilaria immitis, less than 0.1 µg/mL. Further, in assay [1], the inhibition at 10 µg/mL is more than 80%.

Turning to `O=C(N[C@H]1CCOc2ccccc21)c1ncc2c(-c3cc(Cl)cc(Cl)c3)cccc2c1N1CCOCC1` [Example I-11], the values for the half-maximal effective concentration (EC50) (on D. immitis Slo-1; in assay [2]; in the assay on Dirofilaria immitis) were 316 to 5010 nM, less than 0.1 µg/mL and less than 0.1 µg/mL, respectively. In addition, the inhibition at 10 µg/mL in assay [1] was more than 80%.

`CC(C)(C)c1cc(Cl)cc(-c2cccc3c(N4CCOCC4)c(C(=O)N[C@H]4CCOc5ccccc54)ncc23)c1` [Example I-12]: the concentration giving a half-maximal response (EC50) is 316 to 5010 nM on D. immitis Slo-1, less than 0.1 µg/mL in assay [2] and less than 0.1 µg/mL in the assay on Dirofilaria immitis. Also, in assay [1], the inhibition at 10 µg/mL is more than 80%.

Regarding `Cc1c(C(=O)N[C@H]2CCOc3ccccc32)ncc2c(-c3cc(Cl)cc(Cl)c3)cccc12` [Example I-13], the EC50 on C. elegans Slo-1a was 31.6 to 316 nM; in assay [2] it was less than 0.1 µg/mL; with Dirofilaria immitis it was less than 1 µg/mL. The inhibition at 10 µg/mL in assay [1] was more than 80%.

Turning to `O=C(NC1CCSc2ccc(F)cc21)c1ncc2c(-c3cc(F)cc(F)c3F)cccc2c1N1CCOCC1` (centres unmarked) [Example I-15], the EC50 on D. immitis Slo-1 is 316 to 5010 nM; in assay [2] it was less than 1 µg/mL; in the assay with Dirofilaria immitis, less than 0.1 µg/mL.

Take `O=C(N[C@H]1CCOc2ccccc21)c1cnc2c(Br)cccc2c1N1CCOCC1` [IC-1, 8-Bromo-N-[(4S)-3,4-dihydro-2H-chromen-4-yl]-4-(morpholin-4-yl)quinoline-3-carboxamide]: the EC50 in assay [2] is less than 10 µg/mL.

For the molecule `Cc1c(C(=O)N[C@H]2CCOc3ccccc32)ncc2c(Br)cccc12` [IC-2, 8-Bromo-N-[(4S)-3,4-dihydro-2H-chromen-4-yl]-4-methylisoquinoline-3-carboxamide], in assay [2], the EC50 is less than 10 µg/mL.

For the molecule `CC(C)c1c(C(=O)N[C@H]2CCOc3ccccc32)ncc2c(Br)cccc12` [IC-3, 8-Bromo-N-[(4S)-3,4-dihydro-2H-chromen-4-yl]-4-isopropylisoquinoline-3-carboxamide], in assay [2], the EC50 is less than 10 µg/mL.
